Data reported in US10723695B2, “Microbiocidal phenylamidine derivatives” (SYNGENTA PARTICIPATIONS AG, priority 2015, dated 2020).

How the values were obtained:
Assay type in all cases: in vivo
[1] = test system: Blumeria graminis f. sp. tritici (Erysiphe graminis f. sp. tritici); test: Blumeria graminis f. sp. tritici / wheat / leaf disc preventative (powdery mildew on wheat); settings: foliar, wheat leaf segments cv. Kanzler, compared to untreated control leaf disks, read-out: disease control
Excerpt: Blumeria graminis f. sp. tritici (Erysiphe graminis f. sp. tritici)/Wheat/Leaf Disc Preventative (Powdery Mildew on Wheat) Wheat leaf segments cv. Kanzler were placed on agar in a multiwell plate (24-well format) and sprayed with the formulated test compound diluted in water. The leaf disks were inoculated by shaking powdery mildew infected plants above the test plates 1 day after application.

[2] = test system: Puccinia recondita f. sp. tritici; test: Puccinia recondita f. sp. tritici / wheat / leaf disc preventative (brown rust); settings: foliar, wheat leaf segments cv. Kanzler, compared to untreated control leaf disks, read-out: disease control
Procedure: Puccinia recondita f. sp. tritici/Wheat/Leaf Disc Preventative (Brown Rust) Wheat leaf segments cv. Kanzler were placed on agar in multiwell plates (24-well format) and sprayed with the formulated test compound diluted in water. The leaf disks were inoculated with a spore suspension of the fungus 1 day after application. The inoculated leaf segments were incubated at 19° C. and 75% rh under a light regime of 12 h light/12 h darkness in a climate cabinet and the activity of a compound was assessed as percent disease control compared to untreated when an appropriate level of disease damage appears in untreated check leaf segments (7-9 days after application).

[3] = test system: Phakopsora pachyrhizi; test: Phakopsora pachyrhizi / soybean / leaf disk preventative (soybean rust); settings: foliar, soybean leaf disks, compared to untreated control leaf disks, read-out: disease control
Procedure: Phakopsora pachyrhizi/Soybean/Leaf Disk Preventative (Soybean Rust) Four-week old soybean plants are sprayed in a spray chamber with the formulated test compound diluted in water. Leaf disks are cut from treated plants and placed on agar into 24-well plates one day after application. Leaf disks are inoculated by spraying them with a spore suspension on their lower leaf surface. After an incubation period in a climate cabinet of 24-36 hours in darkness at 20° C. and 75% rh, the leaf disks are then kept at 20° C. with 12 h light/day and 75% rh. The percentage leaf disk area covered by disease is assessed when an appropriate level of disease appears on untreated check plants (12-14 days after application).

[4] = test system: Puccinia recondita f. sp. tritici; test: Puccinia recondita f. sp. tritici / wheat / leaf disc curative (brown rust); settings: foliar, 24 h, wheat leaf segments cv. Kanzler, curative (applied 1 day after inoculation), compared to untreated control leaf disks, read-out: disease control
Procedure: Puccinia recondita f. sp. tritici/Wheat/Leaf Disc Curative (Brown Rust) Wheat leaf segments cv. Kanzler are placed on agar in multiwell plates (24-well format). The leaf segments are inoculated with a spore suspension of the fungus. Plates were stored in darkness at 19° C. and 75% rh. The formulated test compound diluted in water was applied 1 day after inoculation.

Measured: pest or weed control at 200 ppm

CCN(C)/C=N/c1cc(OC)c(C(O)(c2ccccc2)C(F)F)cc1C (stereo not drawn) [Compound E1.005]
≥ 80%: all assays above

CCN(C)/C=N/c1cc(OC)c(C(C)(O)c2ccccc2)cc1C (stereo not drawn) [Compound E1.007, N-ethyl-N′-[4-(1-hydroxy-1-phenyl-ethyl)-5-methoxy-2-methyl-phenyl]-N-methyl-formamidine]
≥ 80%: all assays above

COc1cc(/N=C/N(C)C2CC2)c(C)cc1C(O)(c1ccccc1)C(F)(F)F (stereo not drawn) [Compound E1.008]
≥ 80%: [2] | [4]

CCN(C)/C=N/c1cc(OC)c(C(O)(c2cc(Cl)cc(Cl)c2)C(F)(F)F)cc1C (stereo not drawn) [Compound E1.013]
≥ 80%: [1] | [2] | [4]

CCN(C)/C=N/c1cc(OC)c([C@](O)(c2ccccc2)C(F)(F)F)cc1C [Compound E1.014]
≥ 80%: all assays above

CCN(C)/C=N/c1cc(OC)c([C@@](O)(c2ccccc2)C(F)(F)F)cc1C [Compound E1.015]
≥ 80%: all assays above

CCN(C)/C=N/c1cc(OC)c(C(O)(c2ccccc2OC)C(F)(F)F)cc1C (stereo not drawn) [Compound E1.030]
≥ 80%: all assays above

CCN(C)/C=N/c1cc(OC)c(C(O)(c2ccc(SC(F)F)cc2)C(F)(F)F)cc1C (stereo not drawn) [Compound E1.038]
≥ 80%: [1] | [4]

CCN(C)/C=N/c1cc(OC)c(C(O)(c2cccc(SC)c2)C(F)(F)F)cc1C (stereo not drawn) [Compound E1.042]
≥ 80%: [1] | [4]

CCCCC(O)(c1cc(C)c(/N=C/N(C)C2CC2)cc1OC)C(F)(F)F (stereo not drawn) [Compound E1.049]
≥ 80%: all assays above

CCN(C)/C=N/c1cc(OC)c(C(O)(C2CCCC2)C(F)(F)F)cc1C (stereo not drawn) [Compound E1.050]
≥ 80%: all assays above

CCN(C)/C=N/c1cc(OC)c(C(O)(CC(C)C)C(F)(F)F)cc1C (stereo not drawn) [Compound E1.051]
≥ 80%: all assays above

CCCCC(O)(c1cc(C)c(/N=C/N(C)C(C)C)cc1OC)C(F)(F)F (stereo not drawn) [Compound E1.053]
≥ 80%: all assays above

CCN(C)/C=N/c1cc(OC)c(C(O)(C(C)C)C(F)(F)F)cc1C (stereo not drawn) [Compound E1.054, N-ethyl-N′-[4-[1-hydroxy-2-methyl-1-(trifluoromethyl)propyl]-5-methoxy-2-methyl-phenyl]-N-methyl-formamidine]
≥ 80%: all assays above

COc1cc(/N=C/N(C)C(C)C)c(C)cc1C(O)(C1CCCC1)C(F)(F)F (stereo not drawn) [Compound E1.060]
≥ 80%: [1] | [2] | [4]

CCN(C)/C=N/c1cc(OC)c(C(O)(C2CCC(C)(C)CC2)C(F)(F)F)cc1C (stereo not drawn) [Compound E1.061]
≥ 80%: all assays above

CCN(C)/C=N/c1cc(OC)c(C(O)(C2CCC(C)CC2)C(F)(F)F)cc1C (stereo not drawn) [Compound E1.062]
≥ 80%: all assays above

CCCCCC(O)(c1cc(C)c(/N=C/N(C)CC)cc1OC)C(F)(F)F (stereo not drawn) [Compound E1.065]
≥ 80%: all assays above

CCN(C)/C=N/c1cc(OC)c(C(O)(CC(C)(C)C)C(F)(F)F)cc1C (stereo not drawn) [Compound E1.066]
≥ 80%: all assays above

CCN(C)/C=N/c1cc(OC)c(C(O)(CCC(C)C)C(F)(F)F)cc1C (stereo not drawn) [Compound E1.068]
≥ 80%: all assays above

CCN(C)/C=N/c1cc(OC)c(C(O)(C2CCC2)C(F)(F)F)cc1C (stereo not drawn) [Compound E1.069]
≥ 80%: all assays above

C=C(C)CC(O)(c1cc(C)c(/N=C/N(C)CC)cc1OC)C(F)(F)F (stereo not drawn) [Compound E1.075]
≥ 80%: all assays above

CCN(C)/C=N/c1cc(OC)c(C(O)(C=C(C)C)C(F)(F)F)cc1C (stereo not drawn) [Compound E1.076]
≥ 80%: all assays above

C=CC(O)(c1cc(C)c(/N=C/N(C)CC)cc1OC)C(F)(F)F (stereo not drawn) [Compound E1.077]
≥ 80%: all assays above

C=C(C)C(O)(c1cc(C)c(/N=C/N(C)CC)cc1OC)C(F)(F)F (stereo not drawn) [Compound E1.078]
≥ 80%: all assays above

CCN(C)/C=N/c1cc(OC)c(C(O)(C2=CCCC2)C(F)(F)F)cc1C (stereo not drawn) [Compound E1.079]
≥ 80%: [1] | [2] | [4]

CCN(C)/C=N/c1cc(OC)c(C(O)(C2=CCCCC2)C(F)(F)F)cc1C (stereo not drawn) [Compound E1.080]
≥ 80%: [1] | [2] | [4]

C#CCC(O)(c1cc(C)c(/N=C/N(C)CC)cc1OC)C(F)(F)F (stereo not drawn) [Compound E1.083]
≥ 80%: all assays above

CCN(C)/C=N/c1cc(OC)c(C(O)(Cc2ccc(F)cc2)C(F)(F)F)cc1C (stereo not drawn) [Compound E1.091]
≥ 80%: [1] | [3] | [4]

CCN(C)/C=N/c1cc(OC)c(C(O)(Cn2cc3ccccc3n2)C(F)(F)F)cc1C (stereo not drawn) [Compound E1.092]
≥ 80%: [1] | [2] | [4]

CCN(C)/C=N/c1cc(OC)c(C(O)(Cn2nc(C)c(Cl)c2C)C(F)(F)F)cc1C (stereo not drawn) [Compound E1.096]
≥ 80%: [3]

CCN(C)/C=N/c1cc(OC)c(C(O)(Cn2cncn2)C(F)(F)F)cc1C (stereo not drawn) [Compound E1.098]
≥ 80%: [1] | [2] | [4]

CCN(C)/C=N/c1cc(OC)c(C(O)(Cc2cccc(F)n2)C(F)(F)F)cc1C (stereo not drawn) [Compound E1.102]
≥ 80%: [1] | [3] | [4]

CCN(C)/C=N/c1cc(OC)c(C(O)(c2cnn(-c3ccccc3)c2)C(F)(F)F)cc1C (stereo not drawn) [Compound E1.109]
≥ 80%: [1] | [2] | [4]

CCN(C)/C=N/c1cc(OC)c(C(O)(c2cnn(C(C)C)c2)C(F)(F)F)cc1C (stereo not drawn) [Compound E1.110]
≥ 80%: [2] | [4]

CCN(C)/C=N/c1cc(OC)c(C(O)(c2cnn(CC)c2)C(F)(F)F)cc1C (stereo not drawn) [Compound E1.111]
≥ 80%: [2] | [3] | [4]

CCCCC(O)(c1cc(C)c(/N=C/N(C)CC)cc1SC)C(F)(F)F (stereo not drawn) [Compound E1.114]
≥ 80%: [1] | [3] | [4]
